In publication PMC4066849 (Structure (London, England : 1993), 2014):

Key:
Drp1 = Drp1 (Mus musculus, UniProt Q8K1M6); test: GTP hydrolysis by purified Drp1; type: biochemical
MiD51 = MiD51 (Mus musculus, UniProt Q8BGV8); test: fluorescence anisotropy equilibrium titration; type: binding
MiD51, sequence (Q8BGV8 134-463): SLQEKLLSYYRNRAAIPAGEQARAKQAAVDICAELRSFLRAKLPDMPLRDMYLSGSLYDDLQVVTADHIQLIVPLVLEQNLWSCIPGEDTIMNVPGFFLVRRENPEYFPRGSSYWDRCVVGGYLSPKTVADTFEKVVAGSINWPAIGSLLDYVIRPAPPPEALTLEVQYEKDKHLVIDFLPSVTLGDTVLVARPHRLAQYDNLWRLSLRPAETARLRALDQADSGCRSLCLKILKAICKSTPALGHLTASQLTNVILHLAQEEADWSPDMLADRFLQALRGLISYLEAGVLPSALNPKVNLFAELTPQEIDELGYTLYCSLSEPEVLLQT

Drp1, sequence (Q8K1M6 whole entry): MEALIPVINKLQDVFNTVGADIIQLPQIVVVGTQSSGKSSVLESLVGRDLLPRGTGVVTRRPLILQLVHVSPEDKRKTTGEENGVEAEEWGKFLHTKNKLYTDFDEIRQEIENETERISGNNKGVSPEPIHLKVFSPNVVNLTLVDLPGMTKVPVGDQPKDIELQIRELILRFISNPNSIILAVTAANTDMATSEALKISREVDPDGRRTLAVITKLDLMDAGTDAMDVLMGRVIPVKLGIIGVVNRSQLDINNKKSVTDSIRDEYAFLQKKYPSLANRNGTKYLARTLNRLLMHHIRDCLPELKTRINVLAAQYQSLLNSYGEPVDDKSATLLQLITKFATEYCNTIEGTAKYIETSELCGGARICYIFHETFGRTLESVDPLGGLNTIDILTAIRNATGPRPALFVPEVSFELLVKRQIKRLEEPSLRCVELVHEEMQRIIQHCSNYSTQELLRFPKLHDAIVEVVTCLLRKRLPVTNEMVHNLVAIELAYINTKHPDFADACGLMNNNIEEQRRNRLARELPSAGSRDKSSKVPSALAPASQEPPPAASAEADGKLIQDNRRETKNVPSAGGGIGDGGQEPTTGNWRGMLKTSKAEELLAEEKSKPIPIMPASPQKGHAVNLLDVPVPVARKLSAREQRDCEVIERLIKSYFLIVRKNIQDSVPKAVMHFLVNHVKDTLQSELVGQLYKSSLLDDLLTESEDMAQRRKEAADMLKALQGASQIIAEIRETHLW

| Kd (MiD51) [µM] | SMILES | GTP hydrolysis by purified Drp1 ([γ-32P]-GTP, thin-layer chromatography); abolis (Drp1) |
| --- | --- | --- |
| – | Nc1nc2c(ncn2[C@@H]2O[C@H](COP(=O)(O)OP(=O)(O)OP(=O)(O)O)[C@@H](O)[C@H]2O)c(=O)[nH]1 [GTP] | ~ 1.5 molecules of GTP per minute |
| 8 | CNc1ccccc1C(=O)O[C@H]1[C@@H](O)[C@H](n2cnc3c(=O)[nH]c(N)nc32)O[C@@H]1COP(=O)(O)OP(=O)(O)O [MANT-GDP] | – |
